Experiments:
PPID = molecular target: T1, PPID (Homo sapiens, UniProt Q08752); test: NMR-based tetrapeptide activity assay (1H/1H TOCSY); type: biochemical; details: collapse of substrate cis/trans peaks; at least one of suc-AAPF-pNA, suc-AFPF-pNA, suc-AGPF-pNA; 25°C
T1 construct: His6 (thrombin cleavage site) (N); made in house; host or cells: E. coli BL21 Gold DE3
From the text: (§1) A two-dimensional NMR experiment (1H/1H TOCSY) described previously,[40], the only in vitro protease-free method available to probe for both substrate binding and catalytic activity of cyclophilins, was used to assess the commercially available tetrapeptides of sequence AAPF, AFPF, and AGPF [34]. […] A number of articles have documented the drawbacks of the protease-coupled assay,[42]–[44], an obvious example being that the addition of protease to the reaction mixture in the chymotrypsin-coupled assay requires additional testing to ensure that the enzymes and substrates being screened are not proteolytic targets. […] We detected binding and turnover for at least one of the tetrapeptide substrates tested for PPIA, PPIB, PPIC, PPID, PPIE, PPIF, PPIG, PPIH, PPIL1, PPWD1, and NKTR (Table 1; see Figure S1 for representative data showing binding and activity). This correlated well with previously determined activities,[20],[21],[28],[30],[45],[46], and established activity measurements for PPIF, PPIG, and NKTR.
(§2) Most protein samples aimed at assessing binding and/or catalysis of tetrapeptide substrates were diluted to 500 µL with 10% D2O and placed into a Shigemi microcell (Allison Park, PA, USA). Typical samples contained 0.075 mM protein and 2 mM of suc-AAPF-pNA, suc-AFPF-pNA, or suc-AGPF-pNA (Bachem), along with 100 mM phosphate buffer pH 7 and 100 mM NaCl. Spectra were collected at 25°C on a Varian 600 or 900 MHz spectrometer (Palo Alto, CA, USA). Spectra were acquired using standard Varian BioPack sequences, processed using NMRpipe software and visualized using CCPN software. For samples used to assess binding of PPIA to peptides DEGPF, DFGPF, DYGPF, YGGPF, or VRGPF, samples were as above except protein concentration was 0.3 mM and spectra were collected at 10°C.

PPIG [1] = molecular target: T2, PPIG (Homo sapiens, UniProt Q13427); test: as above; type: biochemical; details: collapse of substrate cis/trans peaks; at least one of suc-AAPF-pNA, suc-AFPF-pNA, suc-AGPF-pNA; 25°C
T2 construct: His6 (thrombin cleavage site) (N); made in house; host or cells: E. coli BL21 Gold DE3 (general method; the K125A/E126A crystallization mutant was grown in BL21 DE3 Codon Plus RIL)
From the text: as §1, §2

PPIL2 = molecular target: T3, PPIL2 (Homo sapiens, UniProt Q13356); test: as above; type: biochemical
T3 construct: His6 with thrombin cleavage site (N); made in house; host or cells: E. coli BL21 Gold DE3
T3 sequence (Q13356 278-433 limits assumed): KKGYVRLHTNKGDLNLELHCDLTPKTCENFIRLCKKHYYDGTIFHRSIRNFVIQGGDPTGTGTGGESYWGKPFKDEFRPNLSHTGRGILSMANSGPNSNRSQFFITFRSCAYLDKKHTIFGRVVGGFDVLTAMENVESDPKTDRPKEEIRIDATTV
From the text: as §1, §2

SDCCAG-10 = molecular target: T4, SDCCAG-10 (Homo sapiens, UniProt Q6UX04); test: as above; type: biochemical
T4 construct: His6 with thrombin cleavage site (N); made in house; host or cells: E. coli BL21 Gold DE3
T4 sequence (Q6UX04 11-166 limits assumed): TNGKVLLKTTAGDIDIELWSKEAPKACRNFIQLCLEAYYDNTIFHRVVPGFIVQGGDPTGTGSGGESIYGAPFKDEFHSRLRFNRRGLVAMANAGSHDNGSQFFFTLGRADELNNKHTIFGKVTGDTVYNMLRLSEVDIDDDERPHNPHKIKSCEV
From the text: as §1, §2

NKTR = molecular target: T5, NKTR (Homo sapiens, UniProt P30414); test: Thermal stabilization assay (StarGazer static light scattering); type: binding; details: protein approximately 20 µM, compound 50 µM; shift vs basal Tagg
T5 construct: His6 with thrombin cleavage site (N); made in house; host or cells: E. coli BL21 Gold DE3
T5 sequence (P30414 10-175 limits assumed): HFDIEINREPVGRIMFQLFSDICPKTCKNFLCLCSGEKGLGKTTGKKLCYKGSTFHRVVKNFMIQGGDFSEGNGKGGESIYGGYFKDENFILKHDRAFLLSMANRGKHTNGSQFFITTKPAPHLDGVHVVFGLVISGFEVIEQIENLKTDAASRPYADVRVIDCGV
From the text: (§3) In order to elucidate the function of residues in the extended active site of the PPIase domain of the human cyclophilins, we probed the binding and catalytic function of these domains against either substrate or small-molecule inhibitors (see Figure 1 and Datapack S1 for graphical and tabular depictions of the active site). Three assays were utilized to explore these functions. […] This assay has been shown in several studies to be a reliable readout of small molecule binding for kinase and other enzyme families,[38]. […] Because of the inherent thermal stability characteristics of PPID and RanBP2, this technique was unable to distinguish between apo and cyclosporin-bound forms of those domains.
(§4) All protein samples used for static light scattering (StarGazer) trials were assessed for purity utilizing SDS-PAGE and verified for mass accuracy using mass spectrometry. Methods were generally as described as in [38]; protein at approximately 20 µM concentration was heated from room temperature to 80°C in the presence or absence of small molecules, including cyclosporins A, C, D, or H (LKT Labs, MN, USA). The […] were originally prepared in 100% DMSO at 50–100 mM concentration, then diluted to 50 µM for screening, thereby ensuring the final DMSO concentration was less than 5% during the experiment. […] Each compound was tested at least twice.

PPIA = molecular target: T6, PPIA (Homo sapiens, UniProt P62937); test: as above; type: binding; details: protein approximately 20 µM, compound 50 µM; shift vs basal Tagg
T6 construct: His6 (thrombin cleavage site) (N); made in house; host or cells: E. coli BL21 Gold DE3
From the text: as §3, §4

PPIB = molecular target: T7, PPIB (Homo sapiens, UniProt P23284); test: as above; type: binding; details: protein approximately 20 µM, compound 50 µM; shift vs basal Tagg
T7 construct: His6 (thrombin cleavage site) (N); made in house; host or cells: E. coli BL21 Gold DE3
From the text: as §3, §4

PPIC = molecular target: T8, PPIC (Homo sapiens, UniProt P45877); test: as above; type: binding; details: protein approximately 20 µM, compound 50 µM; shift vs basal Tagg
T8 construct: His6 (thrombin cleavage site) (N); made in house; host or cells: E. coli BL21 Gold DE3
From the text: as §3, §4

PPIE = molecular target: T9, PPIE (Homo sapiens, UniProt Q9UNP9); test: as above; type: binding; details: protein approximately 20 µM, compound 50 µM; shift vs basal Tagg
T9 construct: His6 (thrombin cleavage site) (N); made in house; host or cells: E. coli BL21 Gold DE3
From the text: as §3, §4

PPIF = molecular target: T10, PPIF (Homo sapiens, UniProt P30405); test: as above; type: binding; details: protein approximately 20 µM, compound 50 µM; shift vs basal Tagg
T10 construct: His6 (thrombin cleavage site) (N); made in house; host or cells: E. coli BL21 Gold DE3
From the text: as §3, §4

PPIG [2] = molecular target: T2, PPIG; test: as above; type: binding; details: protein approximately 20 µM, compound 50 µM; shift vs basal Tagg
From the text: as §3, §4

PPIH = molecular target: T11, PPIH (Homo sapiens, UniProt O43447); test: as above; type: binding; details: protein approximately 20 µM, compound 50 µM; shift vs basal Tagg
T11 construct: His6 (thrombin cleavage site) (N); made in house; host or cells: E. coli BL21 Gold DE3
From the text: as §3, §4

PPIL1 = molecular target: T12, PPIL1 (Homo sapiens, UniProt Q9Y3C6); test: as above; type: binding; details: protein approximately 20 µM, compound 50 µM; shift vs basal Tagg
T12 construct: His6 (thrombin cleavage site) (N); made in house; host or cells: E. coli BL21 Gold DE3
T12 sequence (Q9Y3C6 10-164 limits assumed): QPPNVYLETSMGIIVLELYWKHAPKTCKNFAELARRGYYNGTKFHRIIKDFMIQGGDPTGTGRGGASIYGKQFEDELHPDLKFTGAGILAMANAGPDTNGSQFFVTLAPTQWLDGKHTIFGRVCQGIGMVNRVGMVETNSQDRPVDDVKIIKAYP
From the text: as §3, §4

PPWD1 = molecular target: T13, PPWD1 (Homo sapiens, UniProt Q96BP3); test: as above; type: binding; details: protein approximately 20 µM, compound 50 µM; shift vs basal Tagg
T13 construct: His6 with thrombin cleavage site (N); made in house; host or cells: E. coli BL21 Gold DE3
T13 sequence (Q96BP3 490-645 limits assumed): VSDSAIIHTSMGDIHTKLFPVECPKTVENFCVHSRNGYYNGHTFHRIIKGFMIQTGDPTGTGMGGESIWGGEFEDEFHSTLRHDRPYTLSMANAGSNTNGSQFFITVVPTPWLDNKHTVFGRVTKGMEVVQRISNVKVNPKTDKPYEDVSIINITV
From the text: as §3, §4

[3] = collapse of substrate cis/trans peaks, suc-AAPF-pNA, suc-AFPF-pNA, suc-AGPF-pNA, 25°C

T2 sequence (Q13427 11-176 limits assumed): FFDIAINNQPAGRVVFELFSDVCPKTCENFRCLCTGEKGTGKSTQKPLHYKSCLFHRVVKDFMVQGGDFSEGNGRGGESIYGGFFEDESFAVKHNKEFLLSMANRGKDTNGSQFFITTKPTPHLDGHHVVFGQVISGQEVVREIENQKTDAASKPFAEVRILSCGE
T11 sequence (O43447 14-176 limits assumed): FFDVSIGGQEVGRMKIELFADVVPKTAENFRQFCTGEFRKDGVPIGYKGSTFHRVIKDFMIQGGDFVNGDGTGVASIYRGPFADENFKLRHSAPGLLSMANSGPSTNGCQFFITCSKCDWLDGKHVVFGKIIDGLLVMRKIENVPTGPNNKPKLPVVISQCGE
T9 sequence (Q9UNP9 143-299 limits assumed): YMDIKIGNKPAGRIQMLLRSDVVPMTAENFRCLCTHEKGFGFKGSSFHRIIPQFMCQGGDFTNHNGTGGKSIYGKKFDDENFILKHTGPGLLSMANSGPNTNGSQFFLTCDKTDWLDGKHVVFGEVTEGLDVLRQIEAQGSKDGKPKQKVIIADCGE
T7 sequence (P23284 47-204 limits assumed): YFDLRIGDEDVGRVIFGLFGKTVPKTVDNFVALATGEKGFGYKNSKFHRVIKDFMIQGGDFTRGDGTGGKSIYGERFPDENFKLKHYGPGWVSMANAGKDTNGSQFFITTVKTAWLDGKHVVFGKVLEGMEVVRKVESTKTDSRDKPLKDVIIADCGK
T1 sequence (Q08752 19-183 limits assumed): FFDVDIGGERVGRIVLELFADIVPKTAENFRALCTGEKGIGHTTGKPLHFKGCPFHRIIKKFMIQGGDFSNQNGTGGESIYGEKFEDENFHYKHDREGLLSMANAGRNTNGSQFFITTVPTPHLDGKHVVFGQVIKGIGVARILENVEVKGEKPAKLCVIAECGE
T10 sequence (P30405 49-205 limits assumed): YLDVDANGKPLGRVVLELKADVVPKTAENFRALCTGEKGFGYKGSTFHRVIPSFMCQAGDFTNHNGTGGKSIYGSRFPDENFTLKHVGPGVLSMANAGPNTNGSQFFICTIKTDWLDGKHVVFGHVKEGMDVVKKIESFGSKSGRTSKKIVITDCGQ
T8 sequence (P45877 41-198 limits assumed): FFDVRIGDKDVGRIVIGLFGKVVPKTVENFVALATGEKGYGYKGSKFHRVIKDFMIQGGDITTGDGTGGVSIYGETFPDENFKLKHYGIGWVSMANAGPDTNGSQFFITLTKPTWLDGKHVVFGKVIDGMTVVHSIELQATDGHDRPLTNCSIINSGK
T6 sequence (P62937 7-163 limits assumed): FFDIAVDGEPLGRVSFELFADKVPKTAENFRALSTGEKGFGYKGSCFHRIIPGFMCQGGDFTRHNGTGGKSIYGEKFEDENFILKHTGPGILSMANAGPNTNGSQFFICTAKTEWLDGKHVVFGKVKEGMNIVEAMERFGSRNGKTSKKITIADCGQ

suc-AGPF-pNA
Tetrapeptide Activity (PPID): active isomerases | Tetrapeptide Activity (PPIG [1]): active isomerases | Binding of substrate (peak centers shift without coalescence) (PPIL2; Figure S1A): binding, but not catalysis | Tetrapeptide Activity (PPIL2; [3]): not active | Binding of substrate (peak centers shift without coalescence) (SDCCAG-10; Figure S1A): binding, but not catalysis | Tetrapeptide Activity (SDCCAG-10; [3]): not active

C/C=C/C[C@@H](C)[C@@H](O)[C@H]1C(=O)N[C@@H]([C@@H](C)O)C(=O)N(C)CC(=O)N(C)[C@@H](CC(C)C)C(=O)N[C@@H](C(C)C)C(=O)N(C)[C@@H](CC(C)C)C(=O)N[C@@H](C)C(=O)N[C@H](C)C(=O)N(C)[C@@H](CC(C)C)C(=O)N(C)[C@@H](CC(C)C)C(=O)N(C)[C@@H](C(C)C)C(=O)N1C [CsC, cyclosporin C]
Thermal Stability ΔTagg, CsC (NKTR): 3.0 °C | Thermal Stability ΔTagg, CsC (PPIA): 1.9 °C | Thermal Stability ΔTagg, CsC (PPIB): 3.4 °C | Thermal Stability ΔTagg, CsC (PPIC): 7.0 °C | Thermal Stability ΔTagg, CsC (PPIE): 6.8 °C | Thermal Stability ΔTagg, CsC (PPIF): 10.7 °C | Thermal Stability ΔTagg, CsC (PPIG [2]): 2 °C | Thermal Stability ΔTagg, CsC (PPIH): 7.3 °C | Thermal Stability ΔTagg, CsC (PPIL1): 1.7 °C | Thermal Stability ΔTagg, CsC (PPWD1): 5.2 °C

Source: PMC2911226, “Structural and Biochemical Characterization of the Human Cyclophilin Family of Peptidyl-Prolyl Isomerases” (PLoS Biology, 2010)
